Assay results published in US20240374738A1, “BIFUNCTIONAL COMPOUND CAPABLE OF DEGRADING RECEPTOR TYROSINE KINASE AND APPLICATION THEREOF” (TAIBIDI PHARMACEUTICAL TECHNOLOGY (SHIJIAZHUANG) CO., LTD., priority 2023, published 2024).

Experiments:
Format in all cases: cell-based
DDR1 [1] = target: T1, DDR1 (Homo sapiens, UniProt Q08345); assay: Experiments with inhibitors of the ubiquitin-proteasome system (DDR1 Western blot); design: endogenous in cells; host or cells: unnamed tumor cells; settings: MG132 10 uM or MLN4924 1 uM for 6 hours, then TPD12140 100 nM 18 h
Description: Tumor cells were inoculated into 6-well plates with 1-3×10^5 cells per well, and the cell growth status was observed the next day. When the cells grew to about 80% confluence, the proteasome inhibitor MG132 (working concentration 10 uM) or the protein ubiquitination inhibitor MLN4924 (working concentration 1 uM) was added to the cell culture medium of the experimental group, and an equal volume of DMSO was added to the control group, and the incubation was continued for 6 hours. The medium in the well plates was discarded, washed twice with PBS, fresh medium was added, and compound TPD12140 (working concentration 100 nM) or an equal volume of DMSO was added to each group of cells, and the incubation was continued for 18 h. Western Blot was performed to detect the expression of DDR1 protein (same operation as above). The experiments were repeated three times or more, and the experimental data were statistically analyzed using GraphPad Prism software.

SNU5 = assay: Growth inhibition of gastric cancer cells SNU5 (CCK-8); settings: Homo sapiens, SNU-5, half inhibitory concentration, 72 hours
Procedure, shortened: (§1)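 MKN45 or SNU5 cells in 96-well plates were treated with compound dilution series in triplicate for 72 h. Viability was read by CCK-8 (1 h, absorbance 450 nm), and inhibition was calculated against blank and medium-only controls. IC50 came from concentration-response curves.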

MKN45 = assay: Growth inhibition of gastric cancer cells MKN45 (CCK-8); settings: Homo sapiens, MKN-45, half inhibitory concentration, 72 hours
Procedure, shortened: as §1

DDR1 [2] = target: T1, DDR1; assay: Degradation of DDR1 in tumor cell MKN45 (Western blot); design: The degradation activity of the compounds against DDR1 in the MKN45 cell line; endogenous in cells; host or cells: MKN45; settings: MKN-45, maximum degradation percentage, MKN45 cells, 24 hours
Procedure, shortened: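 MKN45 gastric cancer cells were treated with compound dilutions for 24 h at a final DMSO of 0.5%; the 2 mM–200 nM series is the added solution, not the final concentration. DDR1 in lysates was quantified by Western blot, normalized to GAPDH and expressed relative to blank control, giving DC50 and Dmax.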

T1 sequence (Q08345 19-913): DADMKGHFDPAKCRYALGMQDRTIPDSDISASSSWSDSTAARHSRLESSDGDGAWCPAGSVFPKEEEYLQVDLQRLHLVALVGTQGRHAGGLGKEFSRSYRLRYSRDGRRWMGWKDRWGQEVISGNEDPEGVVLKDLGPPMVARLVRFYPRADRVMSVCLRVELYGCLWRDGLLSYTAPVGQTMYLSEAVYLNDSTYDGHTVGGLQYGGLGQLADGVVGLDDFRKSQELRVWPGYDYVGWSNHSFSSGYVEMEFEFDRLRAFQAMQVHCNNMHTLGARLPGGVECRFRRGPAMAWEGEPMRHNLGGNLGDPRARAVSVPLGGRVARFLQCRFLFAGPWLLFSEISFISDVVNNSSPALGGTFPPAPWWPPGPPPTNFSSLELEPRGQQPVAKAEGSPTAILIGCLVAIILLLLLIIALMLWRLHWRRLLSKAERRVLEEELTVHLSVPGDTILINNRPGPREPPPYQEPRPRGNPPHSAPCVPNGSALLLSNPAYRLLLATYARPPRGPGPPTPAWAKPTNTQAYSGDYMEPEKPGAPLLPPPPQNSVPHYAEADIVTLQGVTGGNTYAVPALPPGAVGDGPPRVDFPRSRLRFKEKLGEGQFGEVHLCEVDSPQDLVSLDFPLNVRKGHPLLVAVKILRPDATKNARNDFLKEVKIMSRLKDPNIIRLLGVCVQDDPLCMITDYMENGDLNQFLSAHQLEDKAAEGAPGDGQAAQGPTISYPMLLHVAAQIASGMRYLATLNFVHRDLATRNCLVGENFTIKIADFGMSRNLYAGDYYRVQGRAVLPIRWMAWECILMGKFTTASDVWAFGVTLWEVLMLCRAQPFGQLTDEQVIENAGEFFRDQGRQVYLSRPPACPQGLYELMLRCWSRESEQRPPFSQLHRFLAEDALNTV

SMILES | effect of inhibitor on degradation of DDR1 by TPD12140 (DDR1 [1]) | IC50 (SNU5) [nM] | IC50 (MKN45) [nM] | Dmax (DDR1 [2]) [%]
NS(=O)(=O)OC[C@@H]1C[C@@H](n2ccc3c(N[C@H]4CCc5ccccc54)ncnc32)C[C@@H]1O [MLN4924] | can inhibit the degradation of the compounds |  |  | 
COc1cc2c(Oc3ccc(NC(=O)C4(C(=O)Nc5ccc(F)cc5)CC4)cc3)ccnc2cc1NC(=O)CCCN1CCC(CN2CCN(c3ccc(NC4CCC(=O)NC4=O)cc3)CC2)CC1 (stereo not shown) [TPD5752m] |  | 100 to 500 | 100 to 500 | > 85
O=C1CCC(N2Cc3c(C#CCCN4CC5CC(C4)N5CC4CCN(c5cc6nccc(Oc7ccc(NC(=O)C8(C(=O)Nc9ccc(F)cc9)CC8)cc7)c6cc5OC(F)(F)F)CC4)cccc3C2=O)C(=O)N1 (stereo not shown) [TPD12150] |  | 100 to 500 | ≤ 100 | 65 to 75
O=C1CCC(N2Cc3cc(NCCN4C5CC4CN(CC4CCN(c6cc7nccc(Oc8ccc(NC(=O)C9(C(=O)Nc%10ccc(F)cc%10)CC9)cc8)c7cc6F)CC4)C5)ncc3C2=O)C(=O)N1 (stereo not shown) [TPD12086] |  | ≤ 100 | 100 to 500 | 75 to 85
COc1cc2c(Oc3ccc(NC(=O)C4(C(=O)Nc5ccc(F)cc5)CC4)cc3)ccnc2cc1N1CCC(CN2CCN(CCNc3nccc4c3CN(C3CCC(=O)NC3=O)C4=O)C(=O)C2)CC1 (stereo not shown) [TPD12068] |  | ≤ 100 | ≤ 100 | 65 to 75
COc1cc2c(Oc3ccc(NC(=O)C4(C(=O)Nc5ccc(F)cc5)CC4)cc3)ccnc2cc1N1CCC(C(=O)NCC(=O)N[C@H](C(=O)N2C[C@H](O)C[C@H]2C(=O)NCc2ccc(-c3scnc3C)cc2)C(C)(C)C)CC1 [TPD5452] |  | 1000 to 3000 | 1000 to 3000 | 65 to 75
Cc1ncsc1-c1ccc(CNC(=O)[C@@H]2C[C@@H](O)CN2C(=O)[C@@H](NC(=O)CCN2CCC(COc3cnc(-c4cccc(Cn5nc(-c6cccc(C#N)c6)ccc5=O)c4)nc3)CC2)C(C)(C)C)cc1 [TPD10001] |  | 100 to 500 | 500 to 1000 | 65 to 75
O=C1CCC(N2Cc3c(C#CCCN4CC5CC(C4)N5CC4CCN(c5cc6nccc(Oc7ccc(NC(=O)C8(C(=O)Nc9ccc(F)cc9)CC8)cc7)c6cc5F)CC4)cccc3C2=O)C(=O)N1 (stereo not shown) [TPD12235] |  | ≤ 100 | ≤ 100 | 65 to 75
N#Cc1cccc(-c2ccc(=O)n(Cc3cccc(-c4ncc(OCC5CCN(CCC(=O)Nc6cccc7c6CN(C6CCC(=O)NC6=O)C7=O)CC5)cn4)c3)n2)c1 (stereo not shown) [TPD10013] |  | 500 to 1000 | 1000 to 3000 | 65 to 75
COc1cc2c(Oc3ccc(NC(=O)C4(C(=O)Nc5ccc(F)cc5)CC4)cc3)ccnc2cc1N1CCC(CN2C[C@H]3C[C@@H]2CN3CCCNc2cc3c(cn2)C(=O)N(C2CCC(=O)NC2=O)C3)CC1 (stereo partly shown) [TPD12116] |  | ≤ 100 | ≤ 100 | 75 to 85
COc1cc2c(Oc3ccc(NC(=O)C4(C(=O)Nc5ccc(F)cc5)CC4)cc3)ccnc2cc1N1CCC(CN2CC3CC(C2)N3CCNc2cc3c(cn2)C(=O)N(C2CCC(=O)NC2=O)C3)CC1 (stereo not shown) [TPD12082] |  | ≤ 100 | 100 to 500 | 65 to 75
COc1cc2c(Oc3ccc(NC(=O)C4(C(=O)Nc5ccc(F)cc5)CC4)cc3)ccnc2cc1N1CCN(CCCC(=O)N[C@H](C(=O)N2C[C@H](O)C[C@H]2C(=O)NCc2ccc(-c3scnc3C)cc2)C(C)(C)C)CC1 [TPD5457] |  | ≤ 100 | ≤ 100 | 75 to 85
COc1cc2c(Oc3ccc(NC(=O)C4(C(=O)Nc5ccc(F)cc5)CC4)cc3)ccnc2cc1N1CCC(CN2CCN(CCNc3ccc4c(n3)C(=O)N(C3CCC(=O)NC3=O)C4)CC2)CC1 (stereo not shown) [TPD12013] |  | 100 to 500 | 100 to 500 | > 85
CNC(=O)c1ccc(-c2cnc3ncc(Cc4ccc5ncc(NC(=O)CN6CCC(CN7CCN(c8ccc9c(c8)C(=O)N(C8CCC(=O)NC8=O)C9=O)CC7)CC6)cc5c4)n3n2)cc1F (stereo not shown) [TPD7026] |  | ≤ 100 | ≤ 100 | 65 to 75
COc1cc2c(Oc3ccc(NC(=O)C4(C(=O)Nc5ccc(F)cc5)CC4)cc3)ccnc2cc1N1CCC(CN2CCC(C(=O)N3C[C@H](O)C[C@H]3C(=O)NCc3ccc(-c4scnc4C)cc3)CC2)CC1 [TPD5421] |  | 100 to 500 | 100 to 500 | 75 to 85
COc1cc2c(Oc3ccc(NC(=O)C4(C(=O)Nc5ccc(F)cc5)CC4)cc3)ccnc2cc1N1CCC(CN2CCC(OCC(=O)N[C@H](C(=O)N3C[C@H](O)C[C@H]3C(=O)NCc3ccc(-c4scnc4C)cc3)C(C)(C)C)CC2)CC1 [TPD5407] |  | 500 to 1000 | 100 to 500 | 75 to 85

SMILES | effect of inhibitor on degradation of DDR1 by TPD12140 (DDR1 [1]) | IC50 (SNU5) [nM] | IC50 (MKN45) [nM] | Dmax (DDR1 [2]) [%]
COc1cc2c(Oc3ccc(NC(=O)C4(C(=O)Nc5ccc(F)cc5)CC4)cc3)ccnc2cc1N1CCC(CN2CCC(C(=O)N[C@H](C(=O)N3C[C@H](O)C[C@H]3C(=O)NCc3ccc(-c4scnc4C)cc3)C(C)(C)C)CC2)CC1 [TPD5402b] |  | ≤ 100 | ≤ 100 | 65 to 75
COc1cc2c(Oc3ccc(NC(=O)C4(C(=O)Nc5ccc(F)cc5)CC4)cc3)ccnc2cc1N1CCC(CN2C[C@@H]3C[C@H]2CN3CCNc2cc3c(cn2)C(=O)N(C2CCC(=O)NC2=O)C3)CC1 (stereo partly shown) [TPD12096] |  | ≤ 100 | ≤ 100 | 65 to 75
COc1cc2c(Oc3ccc(NC(=O)C4(C(=O)Nc5ccc(F)cc5)CC4)cc3)ccnc2cc1NC(=O)CN1CCC(CN2CCN(c3ccc4c(c3)C(=O)N(C3CCC(=O)NC3=O)C4=O)CC2)CC1 (stereo not shown) [TPD5735] |  | 100 to 500 | 500 to 1000 | 75 to 85
COc1cc2c(Oc3ccc(NC(=O)C4(C(=O)Nc5ccc(F)cc5)CC4)cc3)ccnc2cc1NCC(=O)N1CCC(CN2CCN(c3ccc(N(C)C4CCC(=O)NC4=O)nc3F)CC2)CC1 (stereo not shown) [TPD5773] |  | 100 to 500 | 500 to 1000 | 65 to 75
COc1cc2c(Oc3ccc(NC(=O)C4(C(=O)Nc5ccc(F)cc5)CC4)cc3)ccnc2cc1NC(=O)c1cnc(N2CCC(CN3CCN(c4ccc5c(c4)C(=O)N(C4CCC(=O)NC4=O)C5=O)CC3)CC2)nn1 (stereo not shown) [TPD5714] |  | ≤ 100 | 100 to 500 | 65 to 75
COc1cc2c(Oc3ccc(NC(=O)C4(C(=O)Nc5ccc(F)cc5)CC4)cc3)ccnc2cc1N1CCC(CN2CCC(N3CCN(c4cccc5c4CN(C4CCC(=O)NC4=O)C5=O)CC3)CC2)CC1 (stereo not shown) [TPD5907] |  | ≤ 100 | ≤ 100 | > 85
COc1cc2c(Oc3ccc(NC(=O)C4(C(=O)Nc5ccc(F)cc5)CC4)cc3)ccnc2cc1N1CCC(C(=O)NCCCCC(=O)N[C@H](C(=O)N2C[C@H](O)C[C@H]2C(=O)NCc2ccc(-c3scnc3C)cc2)C(C)(C)C)CC1 [TPD5453] |  | 500 to 1000 | 1000 to 3000 | 75 to 85
COc1cc2c(Oc3ccc(NC(=O)C4(C(=O)Nc5ccc(F)cc5)CC4)cc3)ccnc2cc1N1CCC(CN2CCN(CCNc3cccc4c3C(=O)N(C3CCC(=O)NC3=O)C4=O)CC2)CC1 (stereo not shown) [TPD5972] |  | ≤ 100 | ≤ 100 | > 85
COc1cc2c(Oc3ccc(NC(=O)C4(C(=O)Nc5ccc(F)cc5)CC4)cc3)ccnc2cc1N1CCC(OCCC(=O)Nc2ccc3c(c2)C(=O)N(C2CCC(=O)NC2=O)C3=O)CC1 (stereo not shown) [TPD5706] |  | 100 to 500 | 100 to 500 | 75 to 85
Cc1ncsc1-c1ccc(CNC(=O)[C@@H]2C[C@@H](O)CN2C(=O)[C@@H](NC(=O)CN2CCN(CC3CCN(C(=O)c4ccc(-c5cnc6ncc(Cc7ccc8ncccc8c7)n6n5)cc4F)CC3)CC2)C(C)(C)C)cc1 [TPD9004] |  | ≤ 100 | 100 to 500 | 75 to 85
COc1cc2c(Oc3ccc(NC(=O)C4(C(=O)Nc5ccc(F)cc5)CC4)cc3)ccnc2cc1N1CCC(CN2CC(C(=O)N3C[C@H](O)C[C@H]3C(=O)NCc3ccc(-c4scnc4C)cc3)C2)CC1 [TPD5430] |  | 1000 to 3000 | 1000 to 3000 | 65 to 75
C[C@@H](Oc1cc(-c2cnn(C3CCN(CCN4CCN(c5ccc6c(c5)C(=O)N(C5CCC(=O)NC5=O)C6=O)CC4)CC3)c2)cnc1N)c1c(Cl)ccc(F)c1Cl (stereo partly shown) [TPD10041] |  | ≤ 100 | 500 to 1000 | > 85
COc1cc2c(Oc3ccc(NC(=O)C4(C(=O)Nc5ccc(F)cc5)CC4)cc3)ccnc2cc1NC(=O)CN1CCC(CN2CCN(c3ccc(N(C)C4CCC(=O)NC4=O)nc3F)CC2)CC1 (stereo not shown) [TPD5760] |  | 100 to 500 | 100 to 500 | 65 to 75
COc1cc2c(Oc3ccc(NC(=O)C4(C(=O)Nc5ccc(F)cc5)CC4)cc3)ccnc2cc1N1CCC(N2CCN(C(=O)CCCCC(=O)N[C@H](C(=O)N3C[C@H](O)C[C@H]3C(=O)NCc3ccc(-c4scnc4C)cc3)C(C)(C)C)CC2)CC1 [TPD5494] |  | 100 to 500 | 1000 to 3000 | > 85
Cc1nc(CCN2CCC(CN3CCN(c4ccc5c(c4)C(=O)N(C4CCC(=O)NC4=O)C5=O)CC3)CC2)cc(Nc2ncc(C(=O)Nc3c(C)cccc3Cl)s2)n1 (stereo not shown) [TPD10051] |  | 500 to 1000 | ≤ 100 | > 85
